From US6462039B1, “Fungicidal benzoheterocyclyloxime” (Bayer Aktiengesellschaft, priority 1998, dated 2002)
Where two headings read alike, the source gives them in different places.

Key:
Puccinia recondita = experiment: Puccinia test (wheat)/protective; assay type: in vivo; details: protective, application rate 250 g/ha, evaluation 10 days after inoculation
Protocol: Puccinia Test (Wheat)/Protective Solvent: 25 parts by weight of N,N-dimethylacetamide Emulsifier: 0.6 part by weight of alkylaryl polyglycol ether […] To test for protective activity, young plants are sprayed with the preparation of active compound at the stated application rate. After the spray coating has dried on, the plants are dusted with a conidia suspension of Puccinia recondita. […] The plants are then placed in a greenhouse at a temperature of approximately 20° C. and a relative atmospheric humidity of 80% to promote the development of rust pustules.

[1] = test system: Erysiphe graminis f.sp. hordei; experiment: Erysiphe test (barley)/protective; assay type: in vivo; details: protective, application rate 250 g/ha, evaluation 7 days after inoculation
Protocol: Erysiphe Test (Barley)/Protective Solvent: 25 parts by weight of N,N-dimethylacetamide Emulsifier: 0.6 part by weight of alkylaryl polyglycol ether To produce a suitable preparation of active compound 1 part by weight of active compound is mixed with the stated amounts of solvent and emulsifier and the concentrate is diluted with water to the desired concentration. To test for protective activity, young plants are sprayed with the preparation of active compound at the stated application rate. After the spray coating has dried on, the plants are dusted with spores of Erysiphe graminis f.sp. hordei. The plants are placed in a greenhouse at a temperature of approximately 20° C. and a relative atmospheric humidity of approximately 80% to promote the development of mildew pustules.

[2] = test system: Erysiphe graminis f.sp. hordei; experiment: Erysiphe test (barley)/curative; assay type: in vivo; details: curative (sprayed 48 hours after inoculation), application rate 250 g/ha, evaluation 7 days after inoculation
Protocol: Erysiphe Test (Barley)/Curative Solvent: 25 parts by weight of N,N-dimethylacetamide Emulsifier: 0.6 part of weight of alkylaryl polyglycol ether To produce a suitable preparation of active compound 1 part by weight of active compound is mixed with the stated amounts of solvent and emulsifier and the concentrate is diluted with water to the desired concentration. To test for curative activity, young plants are dusted with spores of Erysiphe graminis f.sp. hordei. 48 hours after the inoculation, the plants are sprayed with the preparation of active compound at the stated application rate. The plants are placed in a greenhouse at a temperature of approximately 20° C. and a relative atmospheric humidity of approximately 80% to promote the development of mildew pustules.

[3] = test system: Fusarium nivale (var. nivale); experiment: Fusarium nivale (var. nivale) test (wheat)/protective; assay type: in vivo; details: protective, application rate 250 g/ha, evaluation 4 days after inoculation
Excerpt: Fusarium Nivale (Var. Nivale) Test (Wheat)/Protective Solvent: 25 parts by weight of N,N-dimethylacetamide Emulsifier: 0.6 part by weight of alkylaryl polyglycol ether […] To test for protective activity, young plants are sprayed with the preparation of active compound at the stated application rate. After the spray coating has dried on, the plants are sprayed with a conidia suspension of Fusarium nivale (var. nivale).

chromatographic logP (physchem) | SMILES | chromatographic logP | other results
2.13 | CCn1nc(/C(C)=N\O)c2ccccc21 [(II-a-2)] | – | –
– | CC(=O)c1nn(C(C)C)c2ccccc12 [(V-5)] | 2.98 | –
– | CC(=O)c1cn(C(F)F)c2ccccc12 [(V-7)] | 2.22 | –
– | CO/N=C(/C1=NOCCO1)c1ccccc1CO/N=C(\C)c1nn(C)c2ccccc12 [Example 1, O-{2-[(5,6-dihydro-[1,4,2]dioxazin-3-yl)-methoxyiminomethyl]-benzyl}1-(1-methyl-1H-indazol-3-yl)-ethanone-oxime] | – | efficacy (Puccinia recondita): 100%; efficacy [1]: 100%; efficacy [2]: 100%; efficacy [3]: 100%
2.28 | C=CCn1nc(/C(C)=N\O)c2ccccc21 [(II-a-4)] | – | –
– | CCCn1nc(C(C)=O)c2ccccc21 [(V-3)] | 2.81 | –
2.55 | CCCn1nc(/C(C)=N\O)c2ccccc21 [(II-a-3)] | – | –
– | C=CCn1nc(C(C)=O)c2ccccc21 [(V-4)] | 2.53 | –
2.25 | C/C(=N/O)c1cn(C(F)F)c2ccccc12 [(II-a-7)] | – | –
– | CCn1cc(C(C)=O)c2ccccc21 [(V-2)] | 2.35 | –
1.99 | COc1ccc2c(C(C)=O)nn(C)c2c1 [(V-6)] | – | –
– | CC(=O)c1nn(C(F)F)c2ccccc12 [Example (V-1), 1-(1-difluoromethyl-1H-indazol-3-yl)-ethanone] | 2.67 | –
2.72 | C/C(=N/O)c1nn(C(C)C)c2ccccc12 [(II-a-5)] | – | –

SMILES | chromatographic logP (physchem) | chromatographic logP | other results
COc1ccc2c(/C(C)=N\O)nn(C)c2c1 [(II-a-6)] | 1.76 | – | –
